The structures appear in SMILES notation. Read-outs that look alike come from different tables or passages of the source.

One assay concerns NCI-H1299 cells. Kind of assay: MTT based cell viability assay on NCI-H1299 cells. The following applies: for IC50: Homo sapiens, read-out: IC50, growth inhibition of NCI-H1299 cells. The essentials:
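NCI-H1299 cells (1000/well, settled overnight) were exposed for 3 d at 37 °C, 5% CO2, to an eight-point series of 10 μM to 0.01 μM plus DMSO blank, as prepared in DMSO (final DMSO 1‰). MTT (0.5 mg/mL, 4 h) was read at 552/630/690 nm. IC50 came from sigmoidal dose-response fits of survival.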

The subject of the next assay is LoVo cells. As to the kind of experiment: MTT based cell viability assay on LoVo cells. As to conditions: for IC50: Homo sapiens, LoVo, 72 h, 3 d, read-out: IC50, growth inhibition of LoVo cells. The essentials: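 Inhibition of LoVo proliferation was derived as IC50 from a sigmoidal dose-response fit of cell survival. Readout was MTT (0.5 mg/mL, 4 h) with absorbance at 552/630/690 nm, after 3-day treatment at 37 °C. Eight-point series from 10 μM to 0.01 μM, DMSO control, 1% DMSO final.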

In a further assay the target is Wee1 (h) (Homo sapiens, UniProt P30291). Kind of assay: Wee1 kinase (h) detection method, [γ-33P]-ATP filter assay. The assay is classed as biochemical.
Wee1 (h), sequence (P30291 whole entry): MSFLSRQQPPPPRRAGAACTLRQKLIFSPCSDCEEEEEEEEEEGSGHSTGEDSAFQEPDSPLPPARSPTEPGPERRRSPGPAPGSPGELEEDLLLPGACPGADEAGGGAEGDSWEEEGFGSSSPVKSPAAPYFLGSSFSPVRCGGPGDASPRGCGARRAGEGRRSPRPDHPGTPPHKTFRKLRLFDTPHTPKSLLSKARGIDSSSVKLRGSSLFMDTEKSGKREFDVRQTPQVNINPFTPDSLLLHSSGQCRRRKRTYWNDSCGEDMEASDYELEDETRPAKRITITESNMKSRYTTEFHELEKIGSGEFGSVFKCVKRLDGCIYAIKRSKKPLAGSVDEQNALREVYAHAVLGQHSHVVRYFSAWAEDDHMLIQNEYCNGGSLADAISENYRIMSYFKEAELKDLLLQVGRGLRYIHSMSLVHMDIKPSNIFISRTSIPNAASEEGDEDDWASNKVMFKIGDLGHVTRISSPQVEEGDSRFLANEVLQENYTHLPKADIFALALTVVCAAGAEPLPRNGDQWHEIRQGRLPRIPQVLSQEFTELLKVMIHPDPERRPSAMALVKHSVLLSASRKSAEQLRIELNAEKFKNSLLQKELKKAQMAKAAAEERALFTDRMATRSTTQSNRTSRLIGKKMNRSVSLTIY

The term IC50 denotes the concentration at which inhibition is half-maximal. Turning to `Cc1cc(Nc2ncc3c(n2)N2CCN=C2N(c2c(Cl)cccc2Cl)C3=O)ccc1N1CCN(C)CC1` [Example 75, 6-(2,6-Dichlorophenyl)-2-((3-methyl-4-(4-methylpiperazin-1-yl)phenyl)amino)-8,9-dihydroimidazo[1,2-a]pyrimido[5,4-e]pyrimidin-5(6H)-one], in the assay on NCI-H1299 cells, the “inhibitory effect on the growth of NCI-H1299 cells compared with AZD1775” value is given as “stronger inhibitory effect on the growth of NCI-H1299 cells than AZD1775”. In addition, the half-inhibitory concentration (IC50) in the assay with NCI-H1299 cells (NCI-H1299, NCI-H1299 cells) came out at 161 nM; in the assay on LoVo cells, 40.2 nM. Further, the “inhibitory effect on the growth of LoVo cells compared with AZD1775” value with LoVo cells is listed as “stronger inhibitory effect on the growth of LoVo cells than AZD1775”. The “Inh. (%) of Wee1 kinase enzyme activity” value came to 24% at Wee1 (h) (C 0.01 μm compound), 80% at Wee1 (h) (C 0.1 μm compound) and 100% at Wee1 (h) (C 1 μm compound).

In the case of `COc1cc(Nc2ncc3c(n2)N2CCN=C2N(c2c(F)cccc2Cl)C3=O)ccc1N1CCN(C)CC1` [Example 54, 6-(2-Chloro-6-fluorophenyl)-2-((3-methoxy-4-(4-methylpiperazin-1-yl)phenyl)amino)-8,9-dihydroimidazo[1,2-a]pyrimido[5,4-e]pyrimidin-5(6H)-one], the IC50 in the assay on NCI-H1299 cells (NCI-H1299 cells) came out at 1530 nM; in the assay with LoVo cells, 155 nM. Further, on Wee1 (h) (C 1 μm compound), the “Inh. (%) of Wee1 kinase enzyme activity” value is 81%.

On to `CN1CCN(c2ccc(Nc3ncc4c(n3)N3CCN=C3N(c3ccc(Cl)cc3Cl)C4=O)cc2)CC1` [Example 87, 6-(2,4-Dichlorophenyl)-2-((4-(4-methylpiperazin-1-yl)phenyl)amino)-8,9-dihydroimidazo[1,2-a]pyrimido[5,4-e]pyrimidin-5(6H)-one], for which the IC50 in the assay on NCI-H1299 cells (NCI-H1299 cells) is more than 10000 nM; in the assay with LoVo cells it was more than 100000 nM. Further, the “Inh. (%) of Wee1 kinase enzyme activity” value at Wee1 (h) (C 1 μm compound) came to 75%.

As for `CN1CCN(c2ccc(Nc3ncc4c(n3)N3C(=NCC3(C)C)N(c3c(F)cccc3Cl)C4=O)cc2)CC1` [Example 28, 6-(2-Chloro-6-fluorophenyl)-9,9-dimethyl-2-((4-(4-methylpiperazin-1-yl)phenyl)amino)-8,9-dihydroimidazo[1,2-a]pyrimido[5,4-e]pyrimidin-5(6H)-one], the IC50 was more than 3000 nM in the assay with NCI-H1299 cells (NCI-H1299 cells) and more than 1000 nM in the assay with LoVo cells. In addition, the “Inh. (%) of Wee1 kinase enzyme activity” value at Wee1 (h) (C 1 μm compound) is reported as 67%.

In the case of `O=C1c2cnc(Nc3ccc(N4CCN(CCO)CC4)cc3)nc2N2CCN=C2N1c1c(Cl)cccc1Cl` [Example 182, 6-(2,6-Dichlorophenyl)-2-((4-(4-(2-hydroxyethyl)piperazin-1-yl)phenyl)amino)-8,9-dihydroimidazo[1,2-a]pyrimido[5,4-e]pyrimidin-5(6H)-one], the IC50 in the assay with NCI-H1299 cells (NCI-H1299 cells) amounted to 503 nM; in the assay with LoVo cells, 243 nM. The “Inh. (%) of Wee1 kinase enzyme activity” value at Wee1 (h) (C 1 μm compound) is recorded as 94%.

For `Cc1cc(Nc2ncc3c(n2)N2CCN=C2N(c2c(Cl)cccc2Cl)C3=O)ccc1N1C[C@@H](C)N(C(C)C)[C@@H](C)C1` [Example 78, 6-(2,6-Dichlorophenyl)-2-((4-((3S,5R)-4-isopropyl-3,5-dimethylpiperazin-1-yl)-3-methylphenyl)amino)-8,9-dihydroimidazo[1,2-a]pyrimido[5,4-e]pyrimidin-5(6H)-one], the IC50 was determined as 149 nM in the assay on NCI-H1299 cells (NCI-H1299, NCI-H1299 cells) and 41.4 nM in the assay with LoVo cells. Further, the results for the “Inh. (%) of Wee1 kinase enzyme activity” value at Wee1 (h) (C 0.01 μm compound), at Wee1 (h) (C 0.1 μm compound) and on Wee1 (h) (C 1 μm compound) were 29%, 77% and 100%, respectively.

As for `Cc1cc(Nc2ncc3c(n2)N2CCN=C2N(c2c(Cl)cccc2Cl)C3=O)cc(Cl)c1N1C[C@@H](C)N(C)[C@@H](C)C1` [Example 137, 6-(2,6-Dichlorophenyl)-2-((3-chloro-5-methyl-4-((3S,5R)-3,4,5-trimethylpiperazin-1-yl)phenyl)amino)-8,9-dihydroimidazo[1,2-a]pyrimido[5,4-e]pyrimidin-5(6H)-one], the IC50 with NCI-H1299 cells (NCI-H1299, NCI-H1299 cells) was found to be 122 nM; in the assay on LoVo cells, 114 nM. Besides, the figures for the “Inh. (%) of Wee1 kinase enzyme activity” value at Wee1 (h) (C 0.01 μm compound), on Wee1 (h) (C 0.1 μm compound) and on Wee1 (h) (C 1 μm compound) were 20%, 78% and 96%, respectively.

Regarding `COc1cc(Nc2ncc3c(n2)N2CCN=C2N(c2c(F)cccc2Cl)C3=O)cc(Br)c1N1CCN(C)CC1` [Example 127, 6-(2-Chloro-6-fluorophenyl)-2-((3-bromo-5-methoxy-4-(4-methylpiperazin-1-yl)phenyl)amino)-8,9-dihydroimidazo[1,2-a]pyrimido[5,4-e]pyrimidin-5(6H)-one], the IC50 in the assay with NCI-H1299 cells (NCI-H1299 cells) worked out at 96.5 nM; in the assay on LoVo cells, 42.3 nM. Further, the “Inh. (%) of Wee1 kinase enzyme activity” value on Wee1 (h) (C 1 μm compound) amounted to 88%.

Regarding `C=CCN1C(=O)c2cnc(Nc3ccc(N4CCN(C)CC4)cc3)nc2N2CCN=C12` [Example 22, 6-Allyl-2-((4-(4-methylpiperazin-1-yl)phenyl)amino)-8,9-dihydroimidazo[1,2-a]pyrimido[5,4-e]pyrimidin-5(6H)-one], the IC50 with NCI-H1299 cells (NCI-H1299 cells) is more than 10000 nM; in the assay on LoVo cells, more than 100000 nM. The “Inh. (%) of Wee1 kinase enzyme activity” value on Wee1 (h) (C 1 μm compound) is on record as 8%.

In the case of `COc1cc(Nc2ncc3c(n2)N2CCN=C2N(c2c(Cl)cccc2Cl)C3=O)cc(Cl)c1N1CCN(C)CC1` [Example 153, 6-(2,6-Dichlorophenyl)-2-((3-chloro-5-methoxy-4-(4-methylpiperazin-1-yl)phenyl)amino)-8,9-dihydroimidazo[1,2-a]pyrimido[5,4-e]pyrimidin-5(6H)-one], the IC50 with NCI-H1299 cells (NCI-H1299, NCI-H1299 cells) came out at 235 nM; in the assay on LoVo cells it was 56.3 nM. Also, the “Inh. (%) of Wee1 kinase enzyme activity” value on Wee1 (h) (C 0.01 μm compound) is reported as 30%; on Wee1 (h) (C 0.1 μm compound), 84%; on Wee1 (h) (C 1 μm compound), 94%.

As to `CN1CCN(c2ccc(Nc3ncc4c(n3)N3CCN=C3N(C3CCC3)C4=O)cc2)CC1` [Example 94, 6-Cyclobutyl-2-((4-(4-methylpiperazin-1-yl)phenyl)amino)-8,9-dihydroimidazo[1,2-a]pyrimido[5,4-e]pyrimidin-5(6H)-one], the IC50 with NCI-H1299 cells (NCI-H1299 cells) came out at 2390 nM; in the assay on LoVo cells, 1910 nM. Also, on Wee1 (h) (C 1 μm compound), the “Inh. (%) of Wee1 kinase enzyme activity” value worked out at 19%.

With `CN1CCN(c2ccc(Nc3ncc4c(n3)N3CCN=C3N(c3c(Cl)cccc3Cl)C4=O)cc2CO)CC1` [Example 181, 6-(2,6-Dichlorophenyl)-2-((3-(hydroxymethyl)-4-(4-methylpiperazin-1-yl)phenyl)amino)-8,9-dihydroimidazo[1,2-a]pyrimido[5,4-e]pyrimidin-5(6H)-one], the IC50 with NCI-H1299 cells (NCI-H1299 cells) worked out at 187 nM; in the assay with LoVo cells, 142 nM. Besides, at Wee1 (h) (C 1 μm compound), the “Inh. (%) of Wee1 kinase enzyme activity” value was 96%.

Take `COc1cc(Nc2ncc3c(n2)N2CCN=C2N(c2c(F)cccc2Cl)C3=O)cc(Cl)c1N1CCN(C)CC1` [Example 126, 6-(2-Chloro-6-fluorophenyl)-2-((3-chloro-5-methoxy-4-(4-methylpiperazin-1-yl)phenyl)amino)-8,9-dihydroimidazo[1,2-a]pyrimido[5,4-e]pyrimidin-5(6H)-one]: the IC50 turned out to be 67 nM in the assay with NCI-H1299 cells (NCI-H1299, NCI-H1299 cells) and 56.7 nM with LoVo cells. Moreover, on Wee1 (h) (C 1 μm compound), the “Inh. (%) of Wee1 kinase enzyme activity” value amounted to 89%.

On to `CC(C)N1C(=O)c2cnc(Nc3ccc(N4CCN(C)CC4)cc3)nc2N2CCN=C21` [Example 18, 6-Isopropyl-2-((4-(4-methylpiperazin-1-yl)phenyl)amino)-8,9-dihydroimidazo[1,2-a]pyrimido[5,4-e]pyrimidin-5(6H)-one], for which the IC50 in the assay on NCI-H1299 cells (NCI-H1299 cells) was more than 10000 nM; in the assay with LoVo cells, more than 1000 nM. The “Inh. (%) of Wee1 kinase enzyme activity” value on Wee1 (h) (C 1 μm compound) is on record as 14%.

(Values after US11345711B2, “8,9-dihydroimidazo[1,2-a]pyrimido[5,4-e]pyrimidin-5(6H)-ones” (IMPACT THERAPEUTICS (SHANGHAI), INC, priority 2016, dated 2022).)
